What all share (type): in vivo
Assay [1] concerns mouse model of CRBI (10 sec scald at 70 C following 600 cGy TBI). As to the kind of experiment: Apoptosis in dermal tissue by TUNEL assay in mouse thermal injury / CRBI model. The following applies: daily 100 ul per wound at 1 mg/ml, day 7. The protocol:
Mice received thermal injury only received a 7% total body surface area scald at 70 C for 10 seconds (under ketamine/xylazine anesthesia). Mice that received the combined injury received total body irradiation with a cesium irradiator at a dose of 6 Gy and 2 hours later received the same scald injury. For the data presented, the treatments were started immediately after the scald injury and the wound were bandaged with Tegaderm. Treatment was daily with 100 ul give per wound at a concentration of 1 mg/ml. The animals were euthanized on day 7. Apoptosis in the dermal tissue was measured by TUNEL assay. NorLeu3-A(1-7) provides additional systems to mitigate delayed wound healing with the involvement of radiation.

For assay [2], the system named is Guinea Pig Model of CRBI (200 cGy TBI combined with 18 mm burn injuries). As to the kind of experiment: NorLeu^3-A(1-7) dose-response study, survival in guinea pig model of CRBI. The following applies: 1 μg/wound/day and above, applied to site of thermal injury daily through day 14; 200 cGy TBI + 18 mm burns. The protocol: (§1) In a subsequent study, 200 cGy TBI was combined with 18 mm burn injuries in a NorLeu^3-A(1-7) dose-response study. On the day of thermal injury and daily through day 14, various concentrations of NorLeu^3-A(1-7) (0-300 μg/day) were applied to the site of thermal injury (FIG. 3).
(§2) For these studies, male Hartley guinea pigs weighing approximately 500 grams were purchased from Charles Rivers Laboratory (Charles Rivers, Mass.). The guinea pigs were housed in a 12:12 hour, light:dark, cycle in the USC Vivaria. The animals received 200 cGy TBI using a Cesuim 137 irradiator. One to two hours thereafter, the guinea pigs received a thermal injury. The thermal injuries were produced and post-operative care performed as described in Rodgers et al., 1997a,b, 2001. Briefly, after anesthesia, two burns were produced on each guinea pig with an 18 mm diameter solid brass rod, which was warmed in a 75° C. water bath. One end of the brass rod was placed on the back of the guinea pig for 50 seconds.
Each burn was treated with 2% HEC (vehicle for topical drug application) with and without NorLeu^3-A(1-7) in 0.05 mol/L phosphate buffer, pH 6.5, and was individually dressed. Treatment was started at various times after TBI and thermal injury as indicated below.

The subject of assay [3] is Guinea Pig Model of CRBI (200 cGy TBI and thermal injury 2 hours later). As to the kind of experiment: Time point at which treatment can be initiated, survival in guinea pig CRBI model. Particulars: 10 or 100 μg/daily. On the procedure: A second study was conducted in this model to assess the length of time that treatment can be delayed and still reduce mortality. In this study, the guinea pigs underwent 200 cGy TBI and thermal injury 2 hours later. Treatment with placebo was started on day 0. Treatment with 10 or 100 μg/daily NorLeu^3-A(1-7) was initiated on day 0, 1, 2, 3 or 4. When treatment was started at days 0, 1, 2, or 3 survival was increased to approximately 40-60% versus 14% in the placebo-treated animals (FIG. 6-9).
as §2
Each burn was treated with 2% HEC (vehicle for topical drug application) with and without NorLeu^3-A(1-7) in 0.05 mol/L phosphate buffer, pH 6.5, and was individually dressed. […]

The subject of assay [4] is Guinea Pig Model of CRBI (200 cGy TBI combined with 18 mm burn injuries). As to the kind of experiment: Proliferating cells at the edge of the burn (immunohistochemical staining, MIB-1) in guinea pig CRBI model. Particulars: topical, day 14, 200 cGy TBI + 18 mm burns. The protocol:
as §1
For these studies, male Hartley guinea pigs weighing approximately 500 grams were purchased from Charles Rivers Laboratory (Charles Rivers, Mass.). The guinea pigs were housed in a 12:12 hour, light:dark, cycle in the USC Vivaria. The animals received 200 cGy TBI using a Cesuim 137 irradiator. One to two hours thereafter, the guinea pigs received a thermal injury. […]
On day 14 after thermal injury, the guinea pigs was euthanized, the burned areas will be excised en bloc. […] Healing was measured by the number of proliferating cells at the injury site. […]
With an Olympus Vanox-S AH-2 dissecting microscope and a magnification power of 100×, each section of the biopsy specimen was separated into either areas on the burn edge or the actual burn areas. […] In each section four to six consecutive medium-power fields (mpf, 100×) were evaluated. […] All stained cells located within the hair follicles of the biopsy sections were counted. […] Each field was then determined to be either a section on the edge of the burn or a part of the burn area itself. […]

Entries after “also recorded” stand apart in the source; their conditions may differ. Where no end group is shown, it is not given here. [ ]: non-standard residue; d: D form. Nle = CCCC[C@H](N)C(=O)O

With “Asp-Arg-Nle-Tyr-Ile-His-Pro (DR[Nle]YIHP) [NorLeu^3-A(1-7)]”, in assay [1] (mouse CRBI: 10 sec scald at 70 C following 600 cGy TBI), the “apoptosis in the dermis and subdermis of thermal injuries” value is on record as “reduces apoptosis”. In assay [1] (mouse thermal injury only (no TBI): 7% TBSA scald at 70 C for 10 seconds), the “apoptosis at the site of thermal injury alone” value is “not at the site of thermal injury alone”. For the same substance, the “mortality associated with combined injury” value in assay [2] was “reduced mortality”. For the same substance, the “effectiveness (survival) with delayed treatment” value in assay [3] (initiation of treatment delayed until day 4) is on record as “effectiveness was reduced”. Moreover, the survival in assay [3] (treatment started at days 0, 1, 2, or 3 after CRBI, versus 14% in placebo-treated animals) was 40-60%. Besides, the “number of proliferating cells in the hair follicle bulge at the edge of the wound” value in assay [4] (all doses (except 3 μg/wound/day)) is on record as “increases proliferating cells; also recorded: increased the number of proliferating cells”. Moreover, in assay [4] (doses of 10 μg/daily and above), the “number of (proliferating) cells in the basal keratinocyte layer at the edge of the burn” value was “increases proliferating cells; also recorded: increase in the number of cells”.

(Values after patent publication US9272013B2, “Methods for treating combined radiation and thermal injury” (University of Southern California, priority 2010, dated 2016).)
